Results: patent US12667604B2, “Combination therapy with controlled-release CNP agonists” (ASCENDIS PHARMA GROWTH DISORDERS A/S, priority 2016, dated 2026)

Key:
[1] = test system: hypophysectomized (HYPOX) SPF Sprague Dawley rats; assay: Femur and tibia length measured with a caliper in hypophysectomized rats; type: in vivo, rat; settings: Somatropin alone, daily s.c.; relative to the vehicle group; day 30
Method: (§1) Method: This study was performed in order to test and compare the effect of Lys26 CNP-38 PEG4×10 kDa conjugate, Somatropin and combinations of the two compounds in an animal model relevant for investigating treatment of growth deficiency. The Somatropin (human growth hormone, hGH) was a United States Pharmacopeia (USP) Reference Standard and was prepared according to supplier instructions. Lys26 CNP-38 PEG4×10 kDa conjugate and Somatropin were administered alone or in combination via subcutaneous injection to hypophysectomized (HYPOX) SPF Sprague Dawley rats for a total of 29 days. The animals were dosed daily with Somatropin or vehicle, and weekly with Lys26 CNP-38 PEG4×10 kDa conjugate (at two different sites in animals receiving both test items on days 1, 8, 15, 22, and 29). The dose levels employed for Lys26 CNP-38 PEG4×10 kDa conjugate were 0.3, 1.0, and 2.0 mg/kg. Somatropin was employed at […] with a concentration of 10 μg/mL (˜8-10 μg/kg with animal weights between 100-120 g during the study period). The animals were weighed predose and once daily during the dosing period. […] Animals were sacrificed on day 30, and femur and tibia were trimmed and their length measured using a caliper. Hereafter, right tibia was fixed and processed for histologic and histomorphometric analysis.

[2] = test system: hypophysectomized (HYPOX) SPF Sprague Dawley rats; assay: Histologic evaluation of HE stained right tibia, width of the endochondral/ossification zone; type: in vivo, rat
Method: as §1

[3] = test system: hypophysectomized (HYPOX) SPF Sprague Dawley rats; assay: Body weight gain in hypophysectomized rats; type: in vivo, rat
Method: as §1

[4] = test system: hypophysectomized (HYPOX) SPF Sprague Dawley rats; assay: Histomorphometric measurement of proliferative zone width of right tibia growth plate; type: in vivo, rat; settings: Somatropin alone versus control (vehicle)
Method: as §1

Fgfr3Y367C/+ mice = assay: Achondroplasia phenotype in Fgfr3Y367C/+ mice (whole body autoradiography, bone lengths); type: in vivo; settings: dosing from day 1 of birth for 15 days; single agent or combination
Method: Animals are sacrificed on day 16 and tissues fixed for histologic or immunohistochemical analysis. Either compound is administered alone or in combination. The dose levels employed for Rosuvastatin are 0.25, 0.5, 1.0 and 2.0 mg/kg. […] The ratios ranges from 1:1-24:1
Reversion of phenotypical features are assessed using whole body autoradiography. The animals are placed on their right side, with the left hind leg more forward than the right, to allow both hind legs to be visible on the X-ray. Bones obtained at necropsy include femur, tibia, humerus, ulna, lumbar vertebra segment L 4-6 and are measured with a caliper.

| Compound | increase in femur length [1] [mm] | increase in tibia length [1] [mm] | Number of animals, width of endochondral/ossification zone Normal (grade 0) ([2]; Somatropin alone) | width of the endochondral/ossification zone, histologic evaluation ([2]; compared to vehicle or to conjugate alone) | Average BWG (g) (±SE) ([3]; body weight gain day 0 (predose) to day 28, Somatropin alone, daily s.c. 10 μL/animal of 10 μg/mL (~8-10 μg/kg)) | body weight gain ([3]; compared to vehicle treated group) | width of the proliferative zone [4] | reversal of the achondroplasic phenotype (Fgfr3Y367C/+ mice) |
| --- | --- | --- | --- | --- | --- | --- | --- | --- |
| Somatropin: human growth hormone, hGH; United States Pharmacopeia (USP) Reference Standard | −0.04±0.08 | 0.55±0.17 | 9 | did not differ from background (vehicle) | 4.44 (±0.94) g | Significant body weight gains | not different from control (vehicle) animals |  |
| CC(C)c1nc(N(C)S(C)(=O)=O)nc(-c2ccc(F)cc2)c1/C=C/[C@@H](O)C[C@@H](O)CC(=O)O [Rosuvastatin] |  |  |  |  |  |  |  | beneficial effect on reversal of the achondroplasic phenotype is observed |
